1 compound from ChEMBL document CHEMBL3638874, “Pyrrolopyrimidine compounds and their uses” (2015) can be followed below.

Experiment [1] has as its target Cyclin-dependent kinase 1 (Homo sapiens, UniProt P06493). Kind of experiment: (§1) IMAP-FPT (Molecular Devices Trade Mark Technology) Endpoint Assay: A 384-well microtiter IMAP-FPT (Molecular Devices Trade Mark Technology) endpoint assay was used for CDK1/cyclin B kinase activity measurements. The same assay was used for IC50 determination of small molecule inhibitors. In general, the kinase reactions were carried out in 20 uL volumes in the reaction solution, which is composed of 2 uL compound (in 20% DMSO), 8 uL CDK1/cyclin B in the 1x Reaction Buffer (Molecular Devices, Cat. No. R8139), 10 uL substrate mixture of Tamra Histone-H1 peptide (Molecular Devices, Cat. No. R7384) and ATP (Amersham Pharmacia, Cat. No. 27-2056-01) in the 1x Reaction Buffer with 1 mM DTT freshly added. The final reaction mixture contains compound (inhibitor) with the concentration varying from 0.005-10 uM, 2% DMSO, 0.25 nM CDK1/cyclin B, 100 nM Tamra Histone-H1 peptide, and 20 uM ATP.All reactions were run at room temperature in black 384-well flat-bottom Costar plates (Corning, Cat. No. 3710) for 120 min then were quenched.

For experiment [2], the target named is Cyclin-dependent kinase 2 (Homo sapiens, UniProt P24941). The experiment is described as §1, with “Assay: The assay was run under the conditions identical to that for CDK1/cyclin B except 0.25 nM CDK1/cyclin B was replaced with 0.3 nM CDK2/cyclin A.” for “Assay:”, “μL” for “uL”, “1×” for “1x”, “μM,” for “uM,”, “μM ATP.” for “uM ATP.All reactions were run at room temperature in black 384-well flat-bottom Costar plates (Corning, Cat. No. 3710) for 120 min then were quenched.”.

The IC50 is the point on the concentration scale where inhibition reaches its midpoint.

Bounds are passed on as bounds.

Chain of Cyclin-dependent kinase 1 (P06493 whole entry): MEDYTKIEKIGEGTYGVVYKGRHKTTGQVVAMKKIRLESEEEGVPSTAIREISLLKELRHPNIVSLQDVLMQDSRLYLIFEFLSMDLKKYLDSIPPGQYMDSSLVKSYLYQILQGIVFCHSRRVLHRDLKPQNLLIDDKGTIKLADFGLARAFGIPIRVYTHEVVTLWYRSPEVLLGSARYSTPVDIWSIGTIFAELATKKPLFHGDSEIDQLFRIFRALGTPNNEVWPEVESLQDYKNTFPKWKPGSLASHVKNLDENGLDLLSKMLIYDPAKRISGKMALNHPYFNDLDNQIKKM

As for `CN(C)C(=O)c1cc2cnc(Nc3ccc(N4CCNCC4=O)cn3)nc2n1C1CCCC1`, the IC50 in experiment [1] and in experiment [2] was above 15 µM throughout.
